We go through eleven molecules from patent publication US5877193A, “Use of N-(4-aryl-thiazol-2-yl)-sulfonamides” (Hoffmann-La Roche Inc., priority 1996, dated 1999).

Assay [1] has as its target T1, kynurenin-3-hydroxylase (Rattus norvegicus, UniProt O88867).
T1 construct: The enzyme source is a crude rat kidney mitochondrial preparation; from tissue; host or cells: rat kidney, crude mitochondrial preparation
Put plainly: ex vivo kynurenin-3-hydroxylase inhibition in the liver after oral administration to rats. The conditions noted are these: 2 hours; for ED50: po. Here is the method: (§1) Determination of kynurenin-3-hydroxylase in vitro and ex vivo
(§2) The kynurenin-3-hydroxylase inhibiting activity of the compounds in accordance with the invention can be determined in vitro and ex vivo using standard methods. The preparations to be tested were examined in the tests described hereinafter, which are based on the methods published by J. B. Erickson, E. M. Flanagan, S. Russo and J. F. Reinhard [Anal. Biochem. 1992, 205: 257-262].
The substances to be tested are administered orally to male rats of 100-140 g body weight in a dosage of 30 μmol/kg. The kidneys and a part of the liver are removed from the animals, which are decapitated after 2 hours, and frozen at -80° C. until used. In order to measure the enzyme activity, the organs are homogenized in the ratio 1:10 (weight/volume) in sucrose, containing TRIS/HCl, pH 7.4 and PMSF.
(§3) Measurement of the enzyme activity
(§4) Scheme of a typical procedure carried out in an incubation tube of appropriate size or on a microtitre plate:
(§5) 25 μl of the substance to be tested in a suitable concentration (in vitro) or homogenization buffer (ex vivo)
(§6) 25 μl of potassium phosphate buffer 0.2M containing 0.4 units of glucose-6-phosphate dehydrogenase
(§7) 25 μl of the mitochondrial preparation (in vitro) or of the kidney or liver homogenate (ex vivo)
(§8) 25 μl of the substrate L-kynurenin containing L-^3 H-3-kynurenin (0.1 μCi)
(§9) 100 μmol, magnesium chloride 4 mmol, NADPH 200 μmol, glucose-6-phosphate 3 mmol (concentration data as final concentrations)
(§10) incubation: 10 min (in vitro) or 2 min (ex vivo) at 37° C. on a shaking machine
(§11) 150 μl of a 10% suspension of active charcoal (Norit A) in water (to remove unreacted labelled substrate)
(§12) shaking for about one minute
(§13) centrifugation for 4 min at 4000 revolutions/min
(§14) transfer of 50 μl of the charcoal-free supernatant into a counting vessel
(§15) addition of 150 μl of an appropriate scintillator to count the radioactivity of the now-tritiated water, which is a measurement of the enzyme activity which exists.
The ED50 value or, where this is not achieved, the percentage inhibition after administration of a single dosage, is a measurement of the strength of the ex vivo enzyme inhibition which is brought about by the tested substances. The ED50 value is that dosage of test substance which leads to a 50% enzyme inhibition in the investigated tissue homogenates.

Assay [2] concerns the target T1, kynurenin-3-hydroxylase. Put plainly: in vitro kynurenin-3-hydroxylase inhibition (crude rat kidney mitochondrial preparation). The following applies: for remaining activity at 1 µM: read-out: % of control at 1 μM; for IC50: pH 7.4. The assay is classed as biochemical.
Excerpt: as §1, §2
The enzyme source is a crude rat kidney mitochondrial preparation which, taken up in the ratio 1:70 (weight/volume) in a potassium phosphate buffer of pH 7.4, containing EGTA, is kept in the frozen state at -80° C. until used. The enzyme test for the in vitro determination differs from the ex vivo determination described hereinafter by the use of the mentioned mitochondreal preparation in place of tissue homogenates as the enzyme source and by a pre-incubation of the enzyme with the substances to be tested at 37° C. for 15 min.
as §3, §4, §5, §6, §7
pre-incubation: 15 min at 37° C. (only in vitro)
as §8, §9, §10, §11, §12, §13, §14, §15
The IC50 value is a measurement of the strength of the in vitro enzyme inhibition which is brought about by the tested substances. It is the concentration of test substance which brings about a 50% inhibition of the enzyme activity.

The subject of another assay is Listeria monocytogenes. Description: antibacterial activity, MIC by microdilution. The class given is cell-based. The following applies: 18 h. Here is the method:
(§16) Method for the determination of antibacterial activity
(§17) The minimum inhibitory concentration (MIC in μg/ml) was determined by the microdilution method in which an Isosensotest bouillon (Oxoid) was used and was complemented with 3% horse blood for Streptococcus and Listeria. The inoculation amount was approximately 5×10^5 CFU/ml. After incubation at 37° C. for 18 h the plates were evaluated at 650 nm. The MIC was determined as the lowest concentration of active substance which brought about a growth inhibition of ≥80% compared to the control.

The subject of the next assay is Pseudomonas aeruginosa. Description: antibacterial activity, MIC by microdilution. The following applies: 18 h. The class given is cell-based. Here is the method: as §16, §17
For a further assay, the system named is Streptococcus pneumoniae. Put plainly: antibacterial activity, MIC by microdilution. The class given is cell-based. Here is the method:
as §16, §17

A further assay deals with Streptococcus pyogenes. Description: antibacterial activity, MIC by microdilution. The assay is classed as cell-based. The conditions noted are these: 18 h. The method, then:
as §16, §17
Background: In broth dilution the organism is exposed to a series of concentrations in liquid medium.

In another assay the test system is Enterococcus faecalis. Description: antibacterial activity, MIC by microdilution. The class given is cell-based. The method, then:
as §16, §17

In the next assay the test system is Staphylococcus aureus. Description: antibacterial activity, MIC by microdilution. The assay is classed as cell-based. The method, then: as §16, §17
The next assay deals with Escherichia coli. Description: antibacterial activity, MIC by microdilution. The assay is classed as cell-based. The conditions noted are these: ATCC25922, strain ATCC 25922, BCB 1001/04, 37° C., 18 h. Here is the method: as §16, §17
Where [3] appears, read: strain BK23, BCB 1003/55, 3% horse blood, 37° C., read-out: MIC.
Setting [4] is: strain BA, BCB 1004/01, 37° C., read-out: MIC.
Where [5] appears, read: ATCC49619, strain ATCC 49619, 3% horse blood, 37° C., 18 h, read-out: MIC.
Where [6] appears, read: strain B15, BCB 1003/35, 3% horse blood, 37° C., read-out: MIC.
Setting [7] is: ATCC29212, strain ATCC 29212, BCB 1003/28, 37° C., 18 h, read-out: MIC.
Setting [8] is: ATCC25923, strain ATCC 25923, BCB 1003/04, 37° C., 18 h, read-out: MIC.

In brackets after ≈: the same amount, converted by molar mass. Read-outs that look alike come from different tables or passages of the source.

T1 sequence (O88867 whole entry): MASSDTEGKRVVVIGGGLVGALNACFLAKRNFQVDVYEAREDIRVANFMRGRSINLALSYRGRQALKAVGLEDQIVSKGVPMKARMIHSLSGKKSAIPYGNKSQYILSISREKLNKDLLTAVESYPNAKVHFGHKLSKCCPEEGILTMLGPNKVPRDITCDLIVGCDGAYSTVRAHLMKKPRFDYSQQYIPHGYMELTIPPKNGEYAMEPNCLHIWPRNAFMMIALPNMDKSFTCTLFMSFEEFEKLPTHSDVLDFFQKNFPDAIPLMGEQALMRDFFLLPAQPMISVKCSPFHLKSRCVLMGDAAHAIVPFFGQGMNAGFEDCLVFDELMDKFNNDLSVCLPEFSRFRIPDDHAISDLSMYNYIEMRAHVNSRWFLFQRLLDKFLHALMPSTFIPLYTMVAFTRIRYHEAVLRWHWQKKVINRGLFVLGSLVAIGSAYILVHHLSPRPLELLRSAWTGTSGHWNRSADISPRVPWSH

For `O=[N+]([O-])c1cccc(-c2csc(NS(=O)(=O)c3ccc4ccccc4c3)n2)c1` [D, Naphthalene2-sulfonic acid [4(3-nitro-phenyl)-thiazol-2-yl)-amide], the “% of control 30 μM/kg p.o in the liver” value on kynurenin-3-hydroxylase [1] was found to be 20.00%. For the same molecule, on kynurenin-3-hydroxylase [2], the remaining activity at 1 µM was 4% and the midpoint of inhibition, the IC50, lay at 30 nM.

Take `Cc1ccc(S(=O)(=O)Nc2nc(-c3cccc([N+](=O)[O-])c3)cs2)cc1` [Example 3, 4-Methyl-N-[4-(3-nitro-phenyl)-thiazol-2-yl]-benzene-sulfonamide]: on kynurenin-3-hydroxylase [1], the “% of control 30 μM/kg p.o in the liver” value came out at 43.00%. At kynurenin-3-hydroxylase [2], this molecule displayed a 50% inhibitory concentration (IC50) of 40 nM.

Take `COc1ccc(-c2csc(NS(=O)(=O)c3ccc(C)cc3)n2)cc1OC` [Example 6, N-[4-(3,4-Dimethoxy-phenyl)-thiazol-2-yl]-4-methyl-benzenesulfonamide]: the “% of control 30 μM/kg p.o in the liver” value at kynurenin-3-hydroxylase [1] came out at 54.00%. Besides, on kynurenin-3-hydroxylase [2], the remaining activity at 1 µM came out at 4.58% and the IC50 was found to be 65 nM.

Consider `COc1ccc(S(=O)(=O)Nc2nc(-c3cccc([N+](=O)[O-])c3)cs2)cc1` [Example 8, 4-Methoxy-N-[4-(3-nitro-phenyl)-thiazol-2-yl]-benzenesulfonamide], for which, on kynurenin-3-hydroxylase [1], the “% of control 30 μM/kg p.o in the liver” value was determined as 23.00% and the ED50 came to 9 µmol/kg. At kynurenin-3-hydroxylase [2], the remaining activity at 1 µM is 5% and the IC50 stood at 44 nM.

For the molecule `COc1ccc(S(=O)(=O)Nc2nc(-c3cccc([N+](=O)[O-])c3)cs2)cc1OC` [Example 21, 3,4-Dimethoxy-N-[4-(3-nitro-phenyl)-thiazol-2-yl]-benzenesulfonamide], on kynurenin-3-hydroxylase [1], the “% of control 30 μM/kg p.o in the liver” value is listed as 10.00% and the ED50 amounted to 4.7 µmol/kg. At kynurenin-3-hydroxylase [2], the remaining activity at 1 µM worked out at 2% and the IC50 stood at 26 nM.

Regarding `Cc1ccc(S(=O)(=O)Nc2nc(-c3cc(C(F)(F)F)ccc3F)cs2)cc1` [Example 32, N-[4-(2-Fluoro-5-trifluoromethyl-phenyl)-thiazol-2-yl]-4-methyl-benzenesulfonamide], the 50% effect level at kynurenin-3-hydroxylase [1] (ED50) was put at a dose of 17 µmol/kg. Besides, on kynurenin-3-hydroxylase [2], the remaining activity at 1 µM stood at 2.5% and the midpoint of inhibition, the IC50, lay at 43 nM.

Turning to `COc1ccc(S(=O)(=O)Nc2nc(-c3cc(C(F)(F)F)ccc3F)cs2)cc1` [Example 41, N-[4-(2-fluoro-5-trifluoromethyl-phenyl)-thiazol-2-yl]-4-methoxy-benzenesulfonamide], the ED50 on kynurenin-3-hydroxylase [1] stood at 17 µmol/kg. At kynurenin-3-hydroxylase [2], the remaining activity at 1 µM stood at 18% and the midpoint of inhibition, the IC50, lay at 50 nM.

`Nc1ccc(S(=O)(=O)Nc2nc(-c3cc(C(F)(F)F)ccc3F)cs2)cc1` [Example 42, 4-Amino-N-[4-(2-fluoro-5-trifluoromethyl-phenyl)-thiazol-2-yl]benzenesulfonamide] displayed an ED50 at kynurenin-3-hydroxylase [1] of 4.6 µmol/kg. Moreover, the remaining activity at 1 µM on kynurenin-3-hydroxylase [2] was 1.4%. For the same molecule, at kynurenin-3-hydroxylase [2], the IC50 stood at 15 nM. Also, the MIC with Listeria monocytogenes (setting [3]) is over 256 µg/mL; in the assay on Pseudomonas aeruginosa (setting [4]), over 256 µg/mL; with Streptococcus pneumoniae (setting [5]), over 256 µg/mL; in the assay on Streptococcus pyogenes (setting [6]), 16 µg/mL (≈ 38.3 µM); in the assay with Enterococcus faecalis (setting [7]), over 256 µg/mL; in the assay with Staphylococcus aureus (setting [8]), 16 µg/mL (≈ 38.3 µM). The MIC against Escherichia coli came out at 256 µg/mL (≈ 613 µM).

At kynurenin-3-hydroxylase [1], `COc1ccc(S(=O)(=O)Nc2nc(-c3cc(C(F)(F)F)ccc3F)cs2)cc1OC` [Example 46, 3,4-Dimethoxy-N-[4-(2-fluoro-5-trifluoromethyl-phenyl)-thiazol-2-yl]benzenesulfonamide] gave an ED50 of 5.3 µmol/kg. Further, the remaining activity at 1 µM on kynurenin-3-hydroxylase [2] turned out to be 4.7%. The IC50 on kynurenin-3-hydroxylase [2] is 22 nM. Also, the MIC was over 256 µg/mL in the assay on Listeria monocytogenes (setting [3]); over 256 µg/mL with Pseudomonas aeruginosa (setting [4]); over 256 µg/mL in the assay with Streptococcus pneumoniae (setting [5]); 64 µg/mL (≈ 138 µM) with Streptococcus pyogenes (setting [6]); over 256 µg/mL with Enterococcus faecalis (setting [7]); 32 µg/mL (≈ 69.2 µM) in the assay with Staphylococcus aureus (setting [8]). The minimum inhibitory concentration (MIC) in the assay on Escherichia coli was over 256 µg/mL.

Consider `Cc1cc(NS(=O)(=O)c2ccc(N)cc2)no1` [SMZ, sulfamethoxazole, reference compound], for which the MIC against Listeria monocytogenes is over 256 µg/mL; in the assay on Pseudomonas aeruginosa it was over 256 µg/mL; with Streptococcus pneumoniae (ATCC49619, 18 h) it was over 256 µg/mL; in the assay on Streptococcus pyogenes it was 16 µg/mL (≈ 63.2 µM); in the assay with Enterococcus faecalis (ATCC29212, 18 h), over 256 µg/mL; against Staphylococcus aureus (ATCC25923, 18 h) it was 32 µg/mL (≈ 126 µM). In addition, the MIC with Escherichia coli was 128 µg/mL (≈ 505 µM).

As to `COc1cc(Cc2cnc(N)nc2N)cc(OC)c1OC` [TMP, trimethoprim, reference compound], the minimal inhibitory concentration (MIC) with Listeria monocytogenes (setting [3]) is 0.25 µg/mL (≈ 0.861 µM); in the assay with Pseudomonas aeruginosa (setting [4]), 8 µg/mL (≈ 27.6 µM); in the assay with Streptococcus pneumoniae (setting [5]) it was 4 µg/mL (≈ 13.8 µM); with Streptococcus pyogenes (setting [6]), 2 µg/mL (≈ 6.89 µM); in the assay with Enterococcus faecalis (ATCC29212, 18 h) it was 0.125 µg/mL (≈ 0.431 µM); in the assay on Staphylococcus aureus (setting [8]) it was 0.5 µg/mL (≈ 1.72 µM). Moreover, in the assay on Escherichia coli, 1 µg/mL (≈ 3.44 µM) was the least that counted as inhibitory (MIC).

As a reminder, the IC50 is the point on the concentration scale where inhibition reaches its midpoint. As usually defined, the ED50 is the dose that gives a 50% effect, or the effect in half of the subjects. By MIC is commonly meant the lowest concentration that inhibits growth of the organism.
